Among the data in patent publication US20080234262A1 (Wyeth, priority 2007, published 2008) are IC50 values, retold here.

Chain of PI3K (P42336 whole entry): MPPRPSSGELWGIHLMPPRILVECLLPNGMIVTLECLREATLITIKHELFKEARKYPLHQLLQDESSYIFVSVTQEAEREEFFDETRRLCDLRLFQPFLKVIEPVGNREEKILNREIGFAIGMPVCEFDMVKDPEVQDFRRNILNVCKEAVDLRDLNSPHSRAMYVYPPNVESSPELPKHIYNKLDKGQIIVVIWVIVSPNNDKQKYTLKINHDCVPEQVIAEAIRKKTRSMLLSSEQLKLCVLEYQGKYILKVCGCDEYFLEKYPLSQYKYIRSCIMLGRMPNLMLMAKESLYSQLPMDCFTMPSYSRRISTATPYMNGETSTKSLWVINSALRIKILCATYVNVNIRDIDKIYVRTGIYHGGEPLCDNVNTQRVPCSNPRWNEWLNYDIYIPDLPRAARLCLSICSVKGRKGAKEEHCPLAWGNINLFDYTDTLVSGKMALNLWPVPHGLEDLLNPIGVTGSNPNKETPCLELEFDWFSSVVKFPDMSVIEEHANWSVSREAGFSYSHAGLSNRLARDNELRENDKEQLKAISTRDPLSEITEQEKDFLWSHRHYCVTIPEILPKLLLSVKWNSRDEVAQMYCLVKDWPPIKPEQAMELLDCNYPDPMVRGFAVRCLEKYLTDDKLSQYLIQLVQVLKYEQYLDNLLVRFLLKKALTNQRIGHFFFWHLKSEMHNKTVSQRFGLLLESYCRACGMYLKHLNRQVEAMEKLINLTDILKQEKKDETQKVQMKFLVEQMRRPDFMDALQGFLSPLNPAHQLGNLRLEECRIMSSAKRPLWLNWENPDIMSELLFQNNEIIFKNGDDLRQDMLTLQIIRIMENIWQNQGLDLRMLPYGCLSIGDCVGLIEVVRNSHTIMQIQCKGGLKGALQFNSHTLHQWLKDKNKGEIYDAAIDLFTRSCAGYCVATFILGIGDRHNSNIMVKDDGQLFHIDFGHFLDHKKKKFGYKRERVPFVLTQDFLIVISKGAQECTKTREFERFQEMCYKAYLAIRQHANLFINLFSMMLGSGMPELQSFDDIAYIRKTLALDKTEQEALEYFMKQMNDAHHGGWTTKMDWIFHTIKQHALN
Chain of PI3K (P27986 whole entry partner): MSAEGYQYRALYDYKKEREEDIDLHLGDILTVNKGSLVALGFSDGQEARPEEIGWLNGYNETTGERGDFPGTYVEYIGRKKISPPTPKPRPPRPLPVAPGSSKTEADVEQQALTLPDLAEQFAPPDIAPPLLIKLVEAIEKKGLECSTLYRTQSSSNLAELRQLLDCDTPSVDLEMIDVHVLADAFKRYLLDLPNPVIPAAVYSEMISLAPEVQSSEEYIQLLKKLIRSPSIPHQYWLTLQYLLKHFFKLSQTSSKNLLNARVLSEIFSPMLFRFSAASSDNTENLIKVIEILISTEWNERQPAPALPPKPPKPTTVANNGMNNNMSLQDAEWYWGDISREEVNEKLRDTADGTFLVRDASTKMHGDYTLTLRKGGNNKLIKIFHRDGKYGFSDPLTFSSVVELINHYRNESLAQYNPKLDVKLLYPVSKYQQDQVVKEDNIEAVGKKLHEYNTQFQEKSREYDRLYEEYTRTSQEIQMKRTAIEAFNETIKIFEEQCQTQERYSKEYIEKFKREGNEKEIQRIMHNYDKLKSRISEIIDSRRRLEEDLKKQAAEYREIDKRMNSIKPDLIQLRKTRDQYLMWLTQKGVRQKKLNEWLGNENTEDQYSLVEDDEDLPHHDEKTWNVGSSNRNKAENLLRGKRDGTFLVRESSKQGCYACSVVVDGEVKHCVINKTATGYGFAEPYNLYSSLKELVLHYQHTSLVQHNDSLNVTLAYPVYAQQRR

This assay addresses PI3K (Homo sapiens, UniProt P42336). Nature of the assay: Fluorescence polarization assay for PI3K.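 Note: PI3K kinase reaction on PIP2 with ATP, 30-60 min, product sensed by GST-GRP with red probe in fluorescence polarization (mP), controls without enzyme and at zero time.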 Type of assay: biochemical. The settings on record: PI3Kα; read-out: PI3Kα IC50. In general terms: Polarisation of emitted light reports the rotation of a fluorescent probe.
Broadly, the IC50 is the concentration that gives 50% inhibition. As for `Cn1ncc2c(N3CCOCC3)nc(-c3cccnc3)nc21` [Compound 1], the IC50 came out at 0.813 µM.
In the case of `Cn1ncc2c(N3CCOCC3)nc(-c3ccoc3)nc21` [Compound 3], the IC50 came to 0.915 µM.
On to `CN(C)CCC(=O)Nc1ccc(-c2nc(N3CCOCC3)c3cnn(-c4ccccc4)c3n2)cc1` [Compound 133], for which the IC50 is 0.223 µM.
In the case of `CC(=O)Nc1ccc(-c2nc(N3CCOCC3)c3cnn(C4CCCCO4)c3n2)cc1` (stereo not drawn) [Compound 224, N-{4-[4-morpholin-4-yl-1-(tetrahydro-2H-pyran-2-yl)-1H-pyrazolo[3,4-d]pyrimidin-6-yl]phenyl}acetamide], the IC50 was found to be 1.65 µM.
The same measure for `COC(=O)Nc1cccc(-c2nc(N3CCOCC3)c3cnn(C4CCN(Cc5ccccc5)CC4)c3n2)c1` [Compound 227, methyl {3-[1-(1-benzylpiperidin-4-yl)-4-morpholin-4-yl-1H-pyrazolo[3,4-d]pyrimidin-6-yl]phenyl}carbamate]: 9.02 µM; for `NC(=O)Nc1cccc(-c2nc(N3CCOCC3)c3cnn(C4CCN(Cc5ccccc5)CC4)c3n2)c1` [Compound 229, N-{3-[1-(1-benzylpiperidin-4-yl)-4-morpholin-4-yl-1H-pyrazolo[3,4-d]pyrimidin-6-yl]phenyl}urea]: 2.17 µM.
For `COCOc1cncc(-c2nc(N3CCOCC3)c3cnn(C4CCN(Cc5ccccc5)CC4)c3n2)c1` [Compound 249, 1-(1-benzylpiperidin-4-yl)-6-[5-(methoxymethoxy)pyridin-3-yl]-4-morpholin-4-yl-1H-pyrazolo[3,4-d]pyrimidine] the value was 2 µM; for `Oc1cncc(-c2nc(N3CCOCC3)c3cnn(C4CCN(Cc5ccccc5)CC4)c3n2)c1` [Compound 250, 5-[1-(1-benzylpiperidin-4-yl)-4-morpholin-4-yl-1H-pyrazolo[3,4-d]pyrimidin-6-yl]pyridin-3-ol], 0.037 µM.
Regarding `CCCOC(=O)Nc1ccc(-c2nc(N3CCOCC3)c3cnn(C4CCN(Cc5ccccc5)CC4)c3n2)cc1` [Compound 255, propyl {4-[1-(1-benzylpiperidin-4-yl)-4-morpholin-4-yl-1H-pyrazolo[3,4-d]pyrimidin-6-yl]phenyl}carbamate], the IC50 turned out to be 4.11 µM.
The same measure for `O=C(NCc1ccccc1)Nc1ccc(-c2nc(N3CCOCC3)c3cnn(C4CCN(Cc5ccccc5)CC4)c3n2)cc1` [Compound 258, 1-benzyl-3-{4-[1-(1-benzylpiperidin-4-yl)-4-morpholin-4-yl-1H-pyrazolo[3,4-d]pyrimidin-6-yl]phenyl}urea]: 0.533 µM; for `Nc1ccc(-c2nc(N3CCOCC3)c3cnn(C4CCCCO4)c3n2)cc1` (stereo not drawn) [Compound 264, 4-[4-morpholin-4-yl-1-(tetrahydro-2H-pyran-2-yl)-1H-pyrazolo[3,4-d]pyrimidin-6-yl]aniline]: 0.119 µM.
For `COC(=O)Nc1ccc(-c2nc(N3CCOCC3)c3cnn(C4CCCCO4)c3n2)cc1` (stereo not drawn) [Compound 274, methyl {4-[4-morpholin-4-yl-1-(tetrahydro-2H-pyran-2-yl)-1H-pyrazolo[3,4-d]pyrimidin-6-yl]phenyl}carbamate], the IC50 is 2.55 µM.
As to `COc1cccc(C(=O)Nc2ccc(-c3nc(N4CCOCC4)c4cn[nH]c4n3)cc2)c1` [Compound 277, 3-methoxy-N-[4-(4-morpholin-4-yl-1H-pyrazolo[3,4-d]pyrimidin-6-yl)phenyl]benzamide], the IC50 worked out at 0.44 µM.
As for `O=C(Nc1ccc(-c2nc(N3CCOCC3)c3cnn(C4CCN(Cc5ccccc5)CC4)c3n2)cc1)C(F)(F)F` [Compound 299, N-{4-[1-(1-benzylpiperidin-4-yl)-4-morpholin-4-yl-1H-pyrazolo[3,4-d]pyrimidin-6-yl]phenyl}-2,2,2-trifluoroacetamide], the IC50 is 1.9 µM.
Consider `O=C(O)Cc1ccc(-c2nc(N3CCOCC3)c3cnn(C4CCN(Cc5ccccc5)CC4)c3n2)cc1` [Compound 353, {4-[1-(1-benzylpiperidin-4-yl)-4-morpholin-4-yl-1H-pyrazolo[3,4-d]pyrimidin-6-yl]phenyl}acetic acid], for which the IC50 stood at 1.26 µM.
